Measured values taken from patent publication EP0731697B1, “SSI TYRPHOSTINS AND PHARMACEUTICAL COMPOSITIONS” (priority 1993, dated 1995).

What was measured:
[1] = target: EGF receptor (Homo sapiens, UniProt P00533); conditions: even at concentrations above 100 uM; cited from earlier work
[2] = tested on: PDGFR; conditions: even at concentrations above 100 uM; cited from earlier work
[3] = tested on: mice; test: LPS-induced lethal toxicity in mice
[4] = tested on: mice; test: LPS toxicity and mortality in mice sensitized with galactosamine; format: in vivo, mice (strain (CD1))
Description: In this model for organ failure, mice (strain (CD1)) are injected (i.p.) simultaneously with galactosamine (18 mg/mouse) and LPS (50 ng/mouse). The LD50 of LPS used in this model is approximately 30,000 lower than the LD50 of LPS used alone. The main toxic manifestation in this model is liver damage and mice develop severe hypoglycemia and die within 7-8 hours.
Serial blood glucose determinations were done in individual animals (2 mice per group). […] Administration of the tyrphostins SSI 3, 400 ug/mouse or SSI 17, 200 ug/mouse 2 hours prior to galactosamine and LPS, prevents hypoglycemia (blood glucose level were approximately […] at 0 and the same after 24 hours) and mortality for over 5 days.

[5] = tested on: TNF-α; test: LPS induced increase in serum TNF-α levels in mice; format: in vivo; conditions: for serum TNF-α levels: 400 ug/mouse i.p. 2 hrs prior to LPS, bled after 2 hours
From the text: TNF-α was implicated to mediate many of the toxic effect of LPS. For example, the effect of SSI 3 on serum TNF-α levels in mice which had been treated with LPS was investigated. LPS induced a rapid increase in serum TNF-α levels. […] […] The bioassay gave somewhat higher levels compared to the ELISA. This finding may indicate that the serum from LPS-treated mice contained in addition to TNF-α, other cytotoxic factors.
The amount of TNF-α was quantitated by assessing the extent of killing of the TNF-α sensitive cell line (A9) essentially as described by Ruff and Gilford, G. E. J. Immunol. 125, 1671-1677, (1980). Briefly, mouse A9 fibroblasts were plated in 96-well flat-bottom micro-titer plates at 30,000 cells /0.1 ml to establish a dense monolayer. After incubation for 24 hr at 37 C in a humidified 5% CO2 atmosphere, cycloheximide was added to a final concentration of 50 ug/ml and 100 ul of serially diluted test samples were added to the wells. After incubation for additional 18 hr the supernatants were carefully aspirated, the monolayer were washed twice with PBS and 200 ul of neutral red solution (0.02%) was added. After incubation for 2 hr, cells were washed and the dye that had been absorbed by the live cells was extracted using 200 ul of 50% ethanol. The concentration of the dye was determined by an ELISA autoreader using a 550 nm filter. Murine TNF-α ELISA kit from ENDOGEN Inc., was used for quancitation of murine TNF-α.

[6] = tested on: granulocytes; test: LPS-induced granulocyte accumulation in lungs and blood leukocyte changes; format: in vivo, Mouse
From the text: As shown, tyrphostins exert a dramatic protective effect against LPS-induced lethal toxicity. Of the effects studied, only LPS-induced accumulation of granulocytes in the lungs and alteration in blood lymphocyte and granulocytes were not affected by SSI 3. […] The indication is therefore that tyrphostins are effective in preventing septic shock following Gram-negative sepsis, experimentally or clinically.
Mouse blood leukocyte count and differential analysis were done using Cell-Dyn 1600, Hematology Analyzer (Sequoia Turner Corporation, U.S.A).

[7] = tested on: mice; test: TNF-α induced lethal toxicity in actinomycin D treated mice; format: in vivo; conditions: actinimycin D:TNF 20 to 2.5 and 15 to 1.0, SSI 3, 400 mg/mouse i.p. 2 hr prior to TNF, 5 mice
Description: The effect of SSI 3 on lethal toxicity in mice induced by TNF-α was investigated. Mice are relatively resistant to TNF-α, when applied as a single agent. Pretreatment of mice with actinomycin D renders them extremely sensitive to TNF. (Wallach et al., 140 J. Immun. 2994, 1988). SSI 3 delayed TNF-α induced lethal toxicity in actinomycin D treated mice by approximately 15 hours at two ratios of actinimycin D:TNF (20 to 2.5 and 15 to 1.0). Mice were injected, i.p., with TNF at 0 time. SSI 3, […]/mouse was administered (i.p.) 2 hr, and actinomycin D (ACT.D) was given (i.p.) 30 min prior to TNF injection. Each experimental group contained 5 mice. Injection of actinomycin D alone causes death in 2 out of 5 animals after 120 hours and 3 out of 5 after 144 hours.

[8] = tested on: Murine fibroblastic cells (A9)
Description: Tyrphostins at different concentration were added 2 hr prior to TNF. After 24 hrs cells viability was determined by vital staining using neutral red.
Recombinant human TNFα is added to a mouse fibroblastic cell line (A9), cultured in the presence of cyclohexamine and cell viability is monitored after 20 hours. […] The percentage of live cells was measured from 2 hours prior to administration until 4 hours after administration for a control and for TNF at concentrations of 0.2 ng/ml, 0.05 ng/ml, and 1.0 ng/ml.

[9] = tested on: p42^MAPK; test: LPS-induced tyrosine phosphorylation in macrophages; format: cell-based; conditions: murine peritoneal macrophages pre-treated with protective concentrations
From the text: LPS-induced tyrosine phosphorylation of a 42 kD protein in murine peritoneal macrophages was inhibited by pre-treating the cells as before with protective concentrations of SSI 3. This protein band was identified as p42^MAPK. […] (Stefanova et al., supra.)

Sequence of EGF receptor (P00533 25-1210): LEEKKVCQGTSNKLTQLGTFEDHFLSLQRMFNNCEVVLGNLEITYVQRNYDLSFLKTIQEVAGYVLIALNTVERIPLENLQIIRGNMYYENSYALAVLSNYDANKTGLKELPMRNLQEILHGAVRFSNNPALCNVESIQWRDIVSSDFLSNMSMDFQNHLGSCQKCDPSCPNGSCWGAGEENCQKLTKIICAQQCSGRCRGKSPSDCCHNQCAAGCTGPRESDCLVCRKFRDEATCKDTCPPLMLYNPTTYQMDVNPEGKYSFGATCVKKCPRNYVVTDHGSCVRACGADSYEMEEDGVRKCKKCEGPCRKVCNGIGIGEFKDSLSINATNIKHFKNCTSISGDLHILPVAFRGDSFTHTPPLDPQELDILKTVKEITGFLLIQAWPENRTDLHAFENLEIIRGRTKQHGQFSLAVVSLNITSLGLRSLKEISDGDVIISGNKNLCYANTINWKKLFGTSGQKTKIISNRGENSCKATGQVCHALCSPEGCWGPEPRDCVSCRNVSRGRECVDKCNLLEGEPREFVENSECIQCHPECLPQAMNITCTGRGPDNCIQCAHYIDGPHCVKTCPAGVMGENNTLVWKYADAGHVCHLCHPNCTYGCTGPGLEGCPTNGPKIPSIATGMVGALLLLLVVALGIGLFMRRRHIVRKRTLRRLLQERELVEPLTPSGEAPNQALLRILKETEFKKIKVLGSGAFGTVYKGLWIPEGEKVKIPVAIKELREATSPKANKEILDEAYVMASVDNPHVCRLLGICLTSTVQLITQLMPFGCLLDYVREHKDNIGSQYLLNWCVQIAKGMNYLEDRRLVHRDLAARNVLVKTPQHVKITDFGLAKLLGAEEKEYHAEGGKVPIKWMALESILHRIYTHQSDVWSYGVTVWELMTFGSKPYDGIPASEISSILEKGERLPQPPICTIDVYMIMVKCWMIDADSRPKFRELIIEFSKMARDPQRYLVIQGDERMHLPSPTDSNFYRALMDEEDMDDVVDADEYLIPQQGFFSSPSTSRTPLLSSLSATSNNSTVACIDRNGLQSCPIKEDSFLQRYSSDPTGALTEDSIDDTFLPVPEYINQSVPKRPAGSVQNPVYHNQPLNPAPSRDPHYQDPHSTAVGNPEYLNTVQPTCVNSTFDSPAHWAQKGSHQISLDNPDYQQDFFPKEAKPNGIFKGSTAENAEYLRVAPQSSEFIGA

For N#CC(C#N)=Cc1ccc([N+](=O)[O-])c(O)c1 [SSI 3], the “effect on EGF receptor” value [1] is given as “no effect”, the “effect on PDGFR” value [2] is given as “no effect” and the extent of lethality ([3]; 400 ug/mouse i.p. two hrs prior to LPS 1.5 mg/mouse, within 5 days, 2 mice out of 20, LPS alone 95%) is given as 10%. The “minimal dose that provided essentially full protection against LPS induced lethal toxicity” value ([3]; LPS 1.5 mg/mouse, administered 2 hours prior to LPS) was 400 ug/mouse, the “protective effect on the LPS-induced lethal toxicity” value ([3]; administered 2 hours after LPS) was “essentially no protective effect” and the “preventing the lethal toxicity” value ([3]; administered at the time of LPS treatment, compared with 2 hr prior to LPS) was “less effective”. For the same compound, the “protection against LPS induced lethal toxicity” value ([3]; doses of 100 and 200 ug/mouse, 5 mice over 6 days) was “partial protection”, the blood glucose level ([4]; after 24 hours, SSI 3 400 ug/mouse or SSI 17 200 ug/mouse 2 hours prior to galactosamine (18 mg/mouse) and LPS (50 ng/mouse), 2 mice per group) was “approximately 100 % mg” and the hypoglycemia and mortality ([4]; mortality for over 5 days, SSI 3 400 ug/mouse or SSI 17 200 ug/mouse 2 hours prior to galactosamine and LPS) was “prevents”. For the same compound, the “serum TNF-α levels” value ([5]; higher of two printed values, presumably bioassay, LPS alone 14) was 4 ng/mL, the “serum TNF-α levels” value ([5]; lower of two printed values, presumably ELISA, LPS alone 7) was 3 ng/mL and the “Serum TNF-α” value ([5]; LPS 200 µg/mouse, AG 300 µg/mouse 2 hrs prior to LPS, 1hr, mean (two single values)) was 2.8 (1.2, 4.4) ng/ml. For the same compound, the “Serum TNF-α” value ([5]; LPS 200 µg/mouse, AG 300 µg/mouse 2 hrs prior to LPS, 2hr, mean (two single values)) was 3.6 (2.7, 4.5) ng/ml, the “Serum TNF-α” value ([5]; no LPS (-), AG 300 µg/mouse, 1hr) was 16.3 ng/mL and the “alteration in blood lymphocyte and granulocytes” value ([6]; LPS-induced) was “not affected”. For the same compound, the “LPS-induced accumulation of granulocytes in the lungs” value ([6]; mouse, in vivo) was “not affected”, the “delay of TNF-α induced lethal toxicity” value [7] was “approximately 15 hours” and the “blocking TNF-α induced cytotoxicity in vitro” value [8] was “active”. For the same compound, the “TNF-α induced cytotoxicity, in vitro” value ([8]; A9 cells, 24 hours with TNF, cyclohexamide 50 ug/ml, tyrphostins added 2 hr prior to TNF, neutral red) was “reduced”, the “TNF toxicity (percentage of live cells)” value ([8]; SSI 3 50 uM, SSI 16 2 uM, SSI 17 2 and 10 uM, A9 cells with cyclohexamine, viability after 20 hours, TNF 0.2, 0.05 and 1.0 ng/ml) was “prevent TNF toxicity to different degrees” and the “LPS-induced tyrosine phosphorylation of a 42 kD protein” value [9] was “inhibited”.
